The source of these data is patent US7691874B2, “Neuroprotective properties of dextrorotatory morphinans” (priority 2004, dated 2010).

One data set has as its target CB1 receptor (Rattus norvegicus, UniProt P20272). The format is biochemical.
In data set [1] the test system is C57 BL/6 mice. Kind of data set: Conditioned place preference (psychological dependence) following repeated administration of morphinans or PCP. The format is in vivo. The settings on record: 20 or 40 mg/kg i.p. (PCP 2.5 or 5 mg/kg); vs saline. The method, then:
On day 14, the guillotine doors were raised. […] Data were analyzed between 0900 and 1700 hr.

Data set [2] has as its system C57 BL/6 mice. Nature of the data set: Locomotor activity and locomotor pattern following repeated administration of morphinans or PCP. The format is in vivo. Conditions: for locomotor pattern (tracings): 40 mg/kg i.p. (PCP 5 mg/kg), FIG. 3; for marginal activity (circling behaviour; absolute turn angular): 20 or 40 mg/kg i.p./day x 7 (PCP 2.5 or 5 mg/kg), 3-min period.

A further data set concerns the target σ1 receptors (Homo sapiens, UniProt Q99720). Conditions: cited from earlier work.
The subject of data set [3] is cocaine-treated mice. Nature of the data set: Cocaine-induced Fos-related antigen-immunoreactivity (FRA-IR) in the striatum. Conditions: cocaine 5 mg/kg; morphinan 20 mg/kg i.p.
Data set [4] relates to cocaine-treated mice. Kind of data set: Cocaine-induced hyperlocomotion. The format is in vivo. The method, then:
FIGS. 34A-34B show effect of morphinans on the cocaine-induced hyperactivity in the mice. Morphinans (15 and 30 mg/kg, i.p.) were administered 30 minutes prior to cocaine (5 and 20 mg/kg, i.p.). Central activity means relatively non-specific locomotor activity in the center of the box. Marginal activity means circling behaviors. All treatments were performed for 7 days.
FIGS. 35A-35D show effect of dimemorfan (DF) on cocaine-induced hyperactivity in the mice. DF (20 mg/kg, i.p.) was administered 30 minutes prior to cocaine (5 and 20 mg/kg, i.p.). All treatments were performed for 7 days.

Sequence of σ1 receptors (Q99720 whole entry): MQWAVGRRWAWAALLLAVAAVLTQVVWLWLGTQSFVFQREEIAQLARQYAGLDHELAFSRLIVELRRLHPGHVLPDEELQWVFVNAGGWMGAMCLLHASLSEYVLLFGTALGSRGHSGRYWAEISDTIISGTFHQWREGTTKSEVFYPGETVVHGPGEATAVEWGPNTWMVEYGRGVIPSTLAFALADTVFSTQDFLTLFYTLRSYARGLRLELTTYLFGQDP
Sequence of CB1 receptor (P20272 whole entry): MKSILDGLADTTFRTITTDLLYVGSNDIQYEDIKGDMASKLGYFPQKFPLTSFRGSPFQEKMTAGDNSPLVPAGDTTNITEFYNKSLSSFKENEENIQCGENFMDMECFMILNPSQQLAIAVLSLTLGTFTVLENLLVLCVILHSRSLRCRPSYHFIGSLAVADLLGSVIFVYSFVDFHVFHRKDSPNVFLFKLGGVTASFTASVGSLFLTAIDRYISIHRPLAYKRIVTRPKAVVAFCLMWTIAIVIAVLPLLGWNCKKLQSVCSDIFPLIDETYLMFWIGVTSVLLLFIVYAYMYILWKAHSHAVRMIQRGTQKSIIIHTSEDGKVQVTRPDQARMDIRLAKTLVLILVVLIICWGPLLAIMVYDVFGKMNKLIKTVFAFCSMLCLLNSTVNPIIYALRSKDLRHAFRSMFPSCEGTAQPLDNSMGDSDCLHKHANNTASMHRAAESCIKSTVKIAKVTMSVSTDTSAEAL

As for `CCCCCCC(C)(C)c1ccc([C@@H]2C[C@H](O)CC[C@H]2CCCO)c(O)c1` [CP55,940, [1α, 2β-(R)-5α]-(−)-5-(1,1-dimethyl)-2-[5-hydroxy-2-(3-hydroxypropyl)cyclohexyl-phenol], reference compound], the “stimulation of GTP γS binding” value on CB1 receptor is reported as “about 120%”.

On to `CN1CC[C@]23CCCC[C@H]2[C@H]1Cc1ccc(O)cc13` [DX, 3-hydroxy-17-methylmorphinan, reference compound], for which the “conditioned place preference (CPP)” value in the data set with C57 BL/6 mice [1] was “produced CPP in a dose-dependent manner”. Further, the “locomotor pattern (tracings)” value in the data set on C57 BL/6 mice [2] is “produced marginal activity”. Moreover, the “marginal activity (circling behaviour; absolute turn angular)” value with C57 BL/6 mice [2] (vs saline) is reported as “significant increase in marginal activity”. Moreover, in the data set with C57 BL/6 mice [2] (20 or 40 mg/kg i.p./day x 7 days, 30 min after final treatment, vs saline), the “locomotor activity (total distance moved)” value is reported as “significantly increased locomotor activity”. In addition, the “affinity for σ1 receptors” value on σ1 receptors was “high affinity ligands”.

In the case of `COc1ccc2c(c1)[C@@]13CCCC[C@H]1[C@@H](C2)NCC3` [MM, 3-methoxymorphinan, reference compound], the “effect on cocaine-induced FRA-IR in the striatum” value with cocaine-treated mice [3] is listed as “Neither DM nor MM affects this induction of FRA-IR”. The “effect on locomotor activity induced by low dose of cocaine” value in the data set on cocaine-treated mice [4] (cocaine 5 mg/kg i.p. x 7 days, morphinan 15 or 30 mg/kg (DF 20 mg/kg) i.p.) was “did not influence locomotor activity mediated by a low dose of cocaine”. In the data set on cocaine-treated mice [4] (cocaine 20 mg/kg i.p. x 7 days, morphinan 15 or 30 mg/kg i.p. 30 min before), the “effect on hyperactivity induced by high dose of cocaine” value was “attenuated”.

As for `c1ccc(C2(N3CCCCC3)CCCCC2)cc1` [PCP, phencyclidine, reference compound], in the data set on C57 BL/6 mice [1], the “conditioned place preference (CPP)” value is “most significant CPP”. In addition, in the data set with C57 BL/6 mice [2], the “locomotor pattern (tracings)” value is “produced marginal activity”. Also, the “marginal activity (circling behaviour; absolute turn angular)” value in the data set on C57 BL/6 mice [2] (vs saline) is reported as “much stronger stereotypies”.
